Results as given in ChEMBL document CHEMBL1201862, “PubChem BioAssay data set” (2004).
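Values below derive from 48-hour exposures of cells grown in 96-well plates, with endpoints linearly interpolated between the two concentrations bracketing the appropriate inhibition level. GI50 = concentration required for 50% inhibition of growth.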 Active and inactive are the calls of the source. No stated cut-off is given here; in the data, active = GI50 up to about 1.1 µM and inactive = higher.

Assays:
Experiment in all cases: inhibition of tumour cell growth, NCI panel, 48 h
LOX IMVI = system: LOX IMVI
SR = system: SR
M14 = system: M14
HCC 2998 = system: HCC 2998
DLD-1 = system: DLD-1
EKVX = system: EKVX
IGROV-1 = system: IGROV-1
OVCAR-4 = system: OVCAR-4
HCT-116 = system: HCT-116
HT-29 = system: HT-29
SK-MEL-5 = system: SK-MEL-5
U-251 = system: U-251
SK-OV-3 = system: SK-OV-3
ACHN = system: ACHN
UACC-62 = system: UACC-62
T47D = system: T47D
DU-145 = system: DU-145
PC-3 = system: PC-3
MDA-N = system: MDA-N
NCI/ADR-RES = system: NCI/ADR-RES

| Structure (SMILES) | GI50 (LOX IMVI) | GI50 (SR) | GI50 (M14) | GI50 (HCC 2998) | GI50 (DLD-1) | GI50 (EKVX) | GI50 (IGROV-1) | GI50 (OVCAR-4) | GI50 (HCT-116) | GI50 (HT-29) | GI50 (SK-MEL-5) | GI50 (U-251) | GI50 (SK-OV-3) | GI50 (ACHN) | GI50 (UACC-62) | GI50 (T47D) | GI50 (DU-145) | GI50 (PC-3) | GI50 (MDA-N) | GI50 (NCI/ADR-RES) |
| --- | --- | --- | --- | --- | --- | --- | --- | --- | --- | --- | --- | --- | --- | --- | --- | --- | --- | --- | --- | --- |
| O=C1c2ccccc2C(=O)c2nc3ccc(Cl)cc3cc21 | > 100 µM (inactive) | > 100 µM (inactive) | > 100 µM (inactive) | > 100 µM (inactive) | > 100 µM (inactive) | > 100 µM (inactive) | > 100 µM (inactive) | > 100 µM (inactive) | > 100 µM (inactive) | > 100 µM (inactive) | > 100 µM (inactive) | > 100 µM (inactive) | > 100 µM (inactive) | > 100 µM (inactive) | > 100 µM (inactive) | – | – | – | – | – |
| CCC(CC)n1c(C)nc2c1C(=O)c1ccccc1C2=O | 19.5 µM (inactive) | 25.8 µM (inactive) | 63.1 µM (inactive) | 77.4 µM (inactive) | 24.3 µM (inactive) | 70.5 µM (inactive) | 71.9 µM (inactive) | 40.7 µM (inactive) | 19.3 µM (inactive) | 33.2 µM (inactive) | 15.7 µM (inactive) | 36.5 µM (inactive) | > 100 µM (inactive) | 41.4 µM (inactive) | 10.3 µM (inactive) | – | – | – | – | – |
| O=C1CCC(=O)c2c1c(O)c1ccncc1c2O | 13.8 µM (inactive) | 13 µM (inactive) | 15.6 µM (inactive) | 15.4 µM (inactive) | 13.7 µM (inactive) | 27.8 µM (inactive) | 15 µM (inactive) | 12.9 µM (inactive) | 14.7 µM (inactive) | 6.62 µM (inactive) | 11.4 µM (inactive) | 23.9 µM (inactive) | 36.5 µM (inactive) | 15.3 µM (inactive) | 6.4 µM (inactive) | – | – | – | – | – |
| CC1COS(=O)O1 (configuration not stated) | > 100 µM (inactive) | > 100 µM (inactive) | > 100 µM (inactive) | > 100 µM (inactive) | > 100 µM (inactive) | > 100 µM (inactive) | > 100 µM (inactive) | > 100 µM (inactive) | > 100 µM (inactive) | > 100 µM (inactive) | > 100 µM (inactive) | – | > 100 µM (inactive) | > 100 µM (inactive) | > 100 µM (inactive) | – | – | – | – | – |
| O=C1OC(=O)c2c1c(-c1ccccc1)cn2-c1ccc(Cl)cc1 | 48.1 µM (inactive) | > 100 µM (inactive) | 8.28 µM (inactive) | > 100 µM (inactive) | > 100 µM (inactive) | 41.1 µM (inactive) | 24.7 µM (inactive) | – | > 100 µM (inactive) | > 100 µM (inactive) | 3.38 µM (inactive) | 87.3 µM (inactive) | > 100 µM (inactive) | 37.2 µM (inactive) | 1.64 µM (inactive) | – | – | – | – | – |
| N/N=C(\Cc1ccccc1)NN=C(N)N | > 100 µM (inactive) | > 100 µM (inactive) | > 100 µM (inactive) | > 100 µM (inactive) | > 100 µM (inactive) | > 100 µM (inactive) | > 100 µM (inactive) | > 100 µM (inactive) | > 100 µM (inactive) | > 100 µM (inactive) | > 100 µM (inactive) | > 100 µM (inactive) | > 100 µM (inactive) | 53.7 µM (inactive) | > 100 µM (inactive) | – | – | – | – | – |
| O=C(c1nc2ccc([N+](=O)[O-])cc2nc1O)C(O)c1ccc2c(c1)OCO2 (configuration not stated) | > 67.9 µM (inactive) | > 100 µM (inactive) | > 94 µM (inactive) | > 100 µM (inactive) | > 100 µM (inactive) | > 100 µM (inactive) | > 100 µM (inactive) | > 100 µM (inactive) | 52.7 µM (inactive) | > 100 µM (inactive) | 45.7 µM (inactive) | > 100 µM (inactive) | > 100 µM (inactive) | > 100 µM (inactive) | 96.4 µM (inactive) | > 100 µM (inactive) | > 100 µM (inactive) | > 100 µM (inactive) | 70.8 µM (inactive) | > 100 µM (inactive) |
| COc1nc(NC2OC(COC(C)=O)C(OC(C)=O)C(OC(C)=O)C2OC(C)=O)c(-c2csc(N)n2)c(=O)n1C (configuration not stated) | > 100 µM (inactive) | > 100 µM (inactive) | 78.7 µM (inactive) | – | 52.7 µM (inactive) | – | > 100 µM (inactive) | 19.4 µM (inactive) | 43.8 µM (inactive) | > 100 µM (inactive) | 43.3 µM (inactive) | 61.5 µM (inactive) | > 100 µM (inactive) | 38.4 µM (inactive) | 33.7 µM (inactive) | – | – | – | – | – |
| N#C/C(=C\c1ccc2ccccc2c1)c1ccccc1 | 53.3 µM (inactive) | 46.8 µM (inactive) | 19.5 µM (inactive) | 21.7 µM (inactive) | 25.7 µM (inactive) | – | 14.9 µM (inactive) | 29.6 µM (inactive) | 30.3 µM (inactive) | 26.7 µM (inactive) | 16.7 µM (inactive) | 23 µM (inactive) | 26.3 µM (inactive) | 18.7 µM (inactive) | 13.1 µM (inactive) | – | – | – | – | – |
| CCCCCCCCCCCCNC(=S)OC | 15.2 µM (inactive) | 3.01 µM (inactive) | 17.3 µM (inactive) | 18.2 µM (inactive) | 15 µM (inactive) | 20.7 µM (inactive) | 11.5 µM (inactive) | 19.4 µM (inactive) | 15.4 µM (inactive) | 16.7 µM (inactive) | 17.3 µM (inactive) | 16 µM (inactive) | 16 µM (inactive) | 17.9 µM (inactive) | 16.1 µM (inactive) | – | – | – | – | – |
| COC(=O)C(C(=O)C(=O)Nc1nc2ccc([N+](=O)[O-])cc2s1)c1nc2ccc(Cl)cc2nc1O (configuration not stated) | > 100 µM (inactive) | > 100 µM (inactive) | > 100 µM (inactive) | > 100 µM (inactive) | > 100 µM (inactive) | > 100 µM (inactive) | > 100 µM (inactive) | > 100 µM (inactive) | > 100 µM (inactive) | > 100 µM (inactive) | > 100 µM (inactive) | 94.8 µM (inactive) | 35.2 µM (inactive) | > 100 µM (inactive) | > 100 µM (inactive) | – | – | – | – | – |
| COC(=O)C1=NC(=S)NC(c2ccccc2)C1c1nc2ccccc2o1 (configuration not stated) | > 50 µM (inactive) | > 50 µM (inactive) | > 50 µM (inactive) | > 50 µM (inactive) | > 50 µM (inactive) | > 50 µM (inactive) | > 50 µM (inactive) | > 50 µM (inactive) | > 50 µM (inactive) | > 50 µM (inactive) | – | > 50 µM (inactive) | > 50 µM (inactive) | > 50 µM (inactive) | > 50 µM (inactive) | – | – | – | – | – |
| O=C(N/C(=C\c1ccc(Oc2ccc(Cl)c(Cl)c2)cc1)c1nc2ccccc2[nH]1)c1ccccc1 | – | 25.6 µM (inactive) | 19.5 µM (inactive) | 16.4 µM (inactive) | 17.7 µM (inactive) | 22 µM (inactive) | > 10 µM (inactive) | 16.6 µM (inactive) | – | 15.5 µM (inactive) | 16.1 µM (inactive) | 14.1 µM (inactive) | 26.2 µM (inactive) | 19.7 µM (inactive) | 13.7 µM (inactive) | – | – | – | – | – |
| O=C1C=CC(=O)c2c1cc1ccccc1c2O | 2.72 µM (inactive) | 0.428 µM (active) | 10.7 µM (inactive) | 17.7 µM (inactive) | 1.66 µM (inactive) | 11.5 µM (inactive) | 5.28 µM (inactive) | 2.33 µM (inactive) | 1.85 µM (inactive) | 7.53 µM (inactive) | 12.1 µM (inactive) | 14 µM (inactive) | 18.4 µM (inactive) | 2.84 µM (inactive) | 6.32 µM (inactive) | 1.61 µM (inactive) | 14.6 µM (inactive) | 6.03 µM (inactive) | 5.26 µM (inactive) | 6.18 µM (inactive) |
| COc1nc(C(Cl)(Cl)Cl)c(Cl)c(OC)c1Cl [PENCLOMEDINE] | 29 µM (inactive) | 37.1 µM (inactive) | 40 µM (inactive) | 46.1 µM (inactive) | 42.6 µM (inactive) | 40.8 µM (inactive) | 14.2 µM (inactive) | 25.7 µM (inactive) | 41.9 µM (inactive) | 14.6 µM (inactive) | 22.5 µM (inactive) | 36.1 µM (inactive) | 16.2 µM (inactive) | 39.3 µM (inactive) | 22.4 µM (inactive) | 37.4 µM (inactive) | 38.7 µM (inactive) | 39.6 µM (inactive) | 26.9 µM (inactive) | 24.3 µM (inactive) |
